Source: PubChem BioAssay AID2060886 (Molecular Pharmacology Branch, DTP, NCI, 2025)

System: 653999-131-R-J2-PDC complex spheroids, growth inhibition
Experiment: Anticancer human tumor 653999-131-R-J2-PDC patient-derived lung adenocarcinoma cell line growth inhibition [RAS]
Settings: for IC50: curve of first compound; for viability, T/C: stronger effect = lower value
Description: RAS pathway inhibitors in Combinations in Complex Spheroids
A high-throughput screen of multi-cell type tumor spheroids was designed to identify active combinations of RAS pathway inhibitors and targeted small molecules. Complex spheroids include a stromal component modeled by human endothelial cells (HUVEC) and fibroblasts modeled by human mesenchymal stem cells (MSCs). The concentration ranges selected for each drug and investigational agent were based upon clinically achievable concentrations if the clinical Cmax of the agent was known.
Compounds. The drugs and investigational agents: abemaciclib (NSC768073), cobimetinib (NSC768068), divarasib (GDC6063, NSC841802), docetaxel (NSC628503), GDC-1971 (RLY-1971, NSC841576), gemcitabine (NSC613327), inavolisib (NSC800729), ipatasertib (NSC767898), KB-0742 (NSC834161), MRTX-1133 (NSC836407), osimertinib (NSC779217), RMC-4630 (NSC839698), RMC-6236 (NSC851965), RMC-6291 (NSC852671), Ro-3306 (NSC812927), sapanisertib (NSC764658), SN-38 (NSC673596), staurosporine (NSC755774), SY5609 (NSC837396), and tovorafenib (DAY101, NSC766906), were obtained from the National Cancer Institute (NCI) Developmental Therapeutics Program Chemical Repository. The FDA-approved anticancer drug set is available from the NCI Developmental Therapeutics Program. […] The stock solutions were prepared in dimethyl sulfoxide (DMSO, Sigma-Aldrich, St. Louis, MO, cat. D2650) at 800-fold the tested concentration and stored at -70 degrees C prior to their use. All drugs and investigational agents were tested over a range starting from a high concentration at or near the clinical Cmax and decreasing in half-log increments. If the clinical Cmax for an agent had not been determined, the highest concentration tested was 10 microM.
Cell Culture. All cells were maintained in an incubator at 37 degrees C and 5% CO2 with 95% humidity. The PDC lines were cultured according to standard operating procedures established by the NCI PDMR. All PDCs were thawed and cultured in Matrigel-coated flasks prepared with a working solution of 1X Ham's F-12 nutrient mix, without supplementation (Invitrogen, Waltham, MA, cat. 11765054), 100 U/mL penicillin-streptomycin (Invitrogen, cat. 15140122), and 2.5% Matrigel (Corning Inc., Corning, NY, cat. 354248) for the first three passages. The 362531-283-R-J2-PDC and 782815-120-R-J1-PDC lines were cultured in 6C/Colon 1B media, which includes advanced DMEM/F-12 (Thermo Fisher Scientific, cat. 12634028), 10 mM HEPES (Thermo Fisher Scientific, cat. 15630080), 1X GlutaMAX supplement (Thermo Fisher Scientific, cat. 35050061), 0.1 mg/mL primocin (InvivoGen, San Diego, CA, cat. ant-pm-2), 10% defined fetal bovine serum, heat inactivated (HyClone Laboratories Inc., Logan, UT, cat. SH30070.03HI), 50% L-WRN conditioned media (ATCC, cat. CRL-3276), 1.25 mM N-Acetyl-L-cysteine (Sigma-Aldrich, cat. A9165), 10 mM nicotinamide (Sigma-Aldrich, cat. N0636), 1X B-27 supplement (Thermo Fisher Scientific, cat. 17504044), 1X N-2 supplement (Thermo Fisher Scientific, cat. 17502048), 50 ng/mL human EGF (Thermo Fisher Scientific, cat. PHG0311), and 10 microM Y-27632 dihydrochloride (Tocris Bioscience, cat. 1254). The K12877-001-R-J1-PDC line was cultured in 6I media, which includes all 6C/Colon 1B media plus 10 ng/mL human FGF-10 (PeproTech, cat. 100-26), 1 ng/mL human FGF-2 (PeproTech, cat. 100-18B), 1 µM prostaglandin E2 (Tocris Bioscience, cat. 2296), […] hydrocortisone (Sigma-Aldrich, cat. H4001), and […] bovine insulin (Sigma-Aldrich, cat. I6634). The K86415-001-R-J1-PDC line was cultured in 6D media, which includes all 6C/Colon 1B media components minus the L-WRN conditioned media. The 485176-168-R4-J1-PDC was cultured in PANC media, which includes all 6C/Colon 1B media plus 100 ng/mL human FGF-10 (PeproTech, cat. 100-26), 500 nM SB-431542 (Selleckchem, cat. S1067), and 10 nM gastrin (Tocris Bioscience, cat. 3006). […]

[1] = second compound 0.0316 µM, first compound 0.0316 µM
[2] = second compound 0.0316 µM, first compound 0.1 µM
[3] = second compound 0.0316 µM, first compound 0.316 µM
[4] = second compound 0.0316 µM, first compound 1 µM
[5] = second compound 0.1 µM, first compound 0.0316 µM
[6] = second compound 0.1 µM, first compound 0.1 µM
[7] = second compound 0.1 µM, first compound 0.316 µM
[8] = second compound 0.1 µM, first compound 1 µM
[9] = second compound 0.316 µM, first compound 0.0316 µM
[10] = second compound 0.316 µM, first compound 0.1 µM
[11] = second compound 0.316 µM, first compound 0.316 µM
[12] = second compound 0.316 µM, first compound 1 µM
[13] = second compound 1 µM, first compound 0.0316 µM
[14] = second compound 1 µM, first compound 0.1 µM
[15] = second compound 1 µM, first compound 0.316 µM
[16] = second compound 1 µM, first compound 1 µM
[17] = second compound 3.16 µM, first compound 0.0316 µM
[18] = second compound 3.16 µM, first compound 0.1 µM
[19] = second compound 3.16 µM, first compound 0.316 µM
[20] = second compound 3.16 µM, first compound 1 µM
[21] = second compound 10 µM, first compound 0.0316 µM
[22] = second compound 10 µM, first compound 0.1 µM
[23] = second compound 10 µM, first compound 0.316 µM
[24] = second compound 10 µM, first compound 1 µM
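Also: spheroids exposed to the agents for seven days before the readout.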

CCN1CCN(Cc2ccc(Nc3ncc(F)c(-c4cc(F)c5nc(C)n(C(C)C)c5c4)n3)nc2)CC1 + C#Cc1c(F)ccc2cc(O)cc(-c3ncc4c(N5CC6CCC(C5)N6)nc(OCC56CCCN5CC(F)C6)nc4c3F)c12
IC50 (second compound 0.0316 µM): > 1000 nM
IC50 (second compound 0.1 µM): > 1000 nM
IC50 (second compound 0.316 µM): 28.2 nM
IC50 (second compound 1 µM): < 3.16 nM
IC50 (second compound 3.16 µM): < 3.16 nM
IC50 (second compound 10 µM): < 3.16 nM
viability, T/C (second compound 0.0316 µM, first compound 0.00316 µM): 74.8%
viability, T/C (second compound 0.0316 µM, first compound 0.01 µM): 88.1%
viability, T/C [1]: 65.6%
viability, T/C [2]: 57.4%
viability, T/C [3]: 62%
viability, T/C [4]: 63.2%
viability, T/C (second compound 0.1 µM, first compound 0.00316 µM): 70.5%
viability, T/C (second compound 0.1 µM, first compound 0.01 µM): 71.8%
viability, T/C [5]: 57.2%
viability, T/C [6]: 52.1%
viability, T/C [7]: 54.8%
viability, T/C [8]: 61%
viability, T/C (second compound 0.316 µM, first compound 0.00316 µM): 64.7%
viability, T/C (second compound 0.316 µM, first compound 0.01 µM): 62.8%
viability, T/C [9]: 43.8%
viability, T/C [10]: 49.3%
viability, T/C [11]: 50.8%
viability, T/C [12]: 50.5%
viability, T/C (second compound 1 µM, first compound 0.00316 µM): 37.7%
viability, T/C (second compound 1 µM, first compound 0.01 µM): 43.6%
viability, T/C [13]: 39.9%
viability, T/C [14]: 30.9%
viability, T/C [15]: 29.9%
viability, T/C [16]: 41.7%
viability, T/C (second compound 3.16 µM, first compound 0.00316 µM): 35.3%
viability, T/C (second compound 3.16 µM, first compound 0.01 µM): 31.7%
viability, T/C [17]: 34.4%
viability, T/C [18]: 26.6%
viability, T/C [19]: 33.3%
viability, T/C [20]: 33.3%
viability, T/C (second compound 10 µM, first compound 0.00316 µM): 18.4%
viability, T/C (second compound 10 µM, first compound 0.01 µM): 17.3%
viability, T/C [21]: 22.3%
viability, T/C [22]: 19.4%
viability, T/C [23]: 20.2%
viability, T/C [24]: 26.9%

C[C@@H](NC(=O)c1ncnc(N)c1Cl)c1ncc(C(=O)Nc2cc(C(F)(F)F)c(Cl)cn2)s1 + C#Cc1c(F)ccc2cc(O)cc(-c3ncc4c(N5CC6CCC(C5)N6)nc(OCC56CCCN5CC(F)C6)nc4c3F)c12
IC50 (second compound 0.0316 µM): > 10000 nM
IC50 (second compound 0.1 µM): > 10000 nM
IC50 (second compound 0.316 µM): > 10000 nM
IC50 (second compound 1 µM): > 10000 nM
IC50 (second compound 3.16 µM): < 31.6 nM
IC50 (second compound 10 µM): < 31.6 nM
viability, T/C [1]: 102%
viability, T/C [2]: 109%
viability, T/C [3]: 102%
viability, T/C [4]: 100%
viability, T/C (second compound 0.0316 µM, first compound 3.16 µM): 100%
viability, T/C (second compound 0.0316 µM, first compound 10 µM): 73.5%
viability, T/C [5]: 91%
viability, T/C [6]: 91.6%
viability, T/C [7]: 90%
viability, T/C [8]: 78.3%
viability, T/C (second compound 0.1 µM, first compound 3.16 µM): 71%
viability, T/C (second compound 0.1 µM, first compound 10 µM): 77.2%
viability, T/C [9]: 77.2%
viability, T/C [10]: 75%
viability, T/C [11]: 87.8%
viability, T/C [12]: 75%
viability, T/C (second compound 0.316 µM, first compound 3.16 µM): 88.3%
viability, T/C (second compound 0.316 µM, first compound 10 µM): 69.1%
viability, T/C [13]: 44.5%
viability, T/C [14]: 68.3%
viability, T/C [15]: 72.5%
viability, T/C [16]: 44.6%
viability, T/C (second compound 1 µM, first compound 3.16 µM): 60.1%
viability, T/C (second compound 1 µM, first compound 10 µM): 54.7%
viability, T/C [17]: 40.3%
viability, T/C [18]: 39.7%
viability, T/C [19]: 37%
viability, T/C [20]: 44.9%
viability, T/C (second compound 3.16 µM, first compound 3.16 µM): 51.5%
viability, T/C (second compound 3.16 µM, first compound 10 µM): 41.8%
viability, T/C [21]: 22%
viability, T/C [22]: 21.2%
viability, T/C [23]: 49.3%
viability, T/C [24]: 45.9%
viability, T/C (second compound 10 µM, first compound 3.16 µM): 30.5%
viability, T/C (second compound 10 µM, first compound 10 µM): 22%
